Experimental data published in patent US5607927A, “Cephalosporin derivative” (Meiji Seika Kaisha, Ltd., priority 1992, dated 1997).
Values after ≈ are worked out from the molar mass of the structure shown.

Key:
E. coli NIHJ JC-2 = assay: minimum growth inhibitory concentration, ordinary serial dilution technique; type: cell-based; conditions: Escherichia coli, NIHJJC2, 10^6 CFU/ml, 35° C., 18 to 20 hours
Experimental: (§1) In this test example, antibacterial activities of the following typical examples of the compound (I) of the present invention upon various bacterial species are illustrated by showing their minimum growth inhibitory concentrations measured by the ordinary serial dilution technique. The measurement was made by inoculating 10^6 CFU/ml of each test strain on a Sensitivity Plate Medium N (Nissui Pharmaceutical Co., Ltd.) and culturing the inoculated cells at 35° C. for 18 to 20 hours.

P. vulgaris GN 76 = assay: as above; type: cell-based; conditions: Proteus vulgaris, GN76, 10^6 CFU/ml, 35° C., 18 to 20 hours
Experimental: as §1

Sta. aureus 209P JC-1 = assay: as above; type: cell-based; conditions: Staphylococcus aureus, 10^6 CFU/ml, Sensitivity Plate Medium N, 35° C., 18 to 20 hours
Experimental: as §1

K. pneumoniae PCI 602 = assay: as above; type: cell-based; conditions: Klebsiella pneumoniae, PCI602, 10^6 CFU/ml, 35° C., 18 to 20 hours
Experimental: as §1

M. morganii 1510/S-l = assay: as above; type: cell-based; conditions: Morganella morganii, 1510/SL, 10^6 CFU/ml, 35° C., 18 to 20 hours
Experimental: as §1

[1] = tested on: Sta. epidermidis ATCC 14990; assay: as above; type: cell-based; conditions: Staphylococcus epidermidis, ATCC14990, 10^6 CFU/ml, 35° C., 18 to 20 hours
Experimental: as §1

[2] = concentration in blood after subcutaneous injection (serum concentration by HPLC); type: in vivo; conditions: sc, ICR mice, male, 0.5 mg per mouse subcutaneous; for Cmax: 4 weeks old, serum by HPLC, read-out: Maximum concentration in blood; for half-life / AUC: serum, Gauss-Newton method; for half-life: read-out: Half-life period (converted); for AUC: sampling 5 minutes to 2 hours, read-out: AUC (area under the plasma concentration-time curve)
Experimental: This test example illustrates that the following typical examples of the compound of the present invention can give and maintain their concentrations in blood at high levels after subcutaneous injection. Test Compounds:
The test was carried out in the following manner. Using five male mice of ICR line (4 weeks old, 1 individual/group for blood collection), 0.5 mg of each test compound dissolved in 0.2 ml of sterile water for injection use was administered to each mouse by subcutaneous injection. Blood collection was carried out after 5 minutes, 15 minutes, 30 minutes, 1 hour and 2 hours after the administration. Each of the thus collected blood samples was subjected to ordinary post-treatment, and then serum concentration of the cephem compound was measured by making use of HPLC. Half-life period and AUC (area under the plasma concentration-time curve) as pharmacokinetic parameters were calculated in accordance with the Gauss-Newton method.

[3] = acute toxicity (LD50) i.v. in mice; conditions: mouse, in vivo, iv
[4] = tested on: Sta. aureus M 133 (methicillin-resistant); assay: minimum growth inhibitory concentration, ordinary serial dilution technique; type: cell-based; conditions: Staphylococcus aureus, 10^6 CFU/ml, 35° C., 18 to 20 hours
Experimental: as §1, with “hours. Test Compounds:” for “hours.”
(§2) Note: (*), methicillinresistant Staphylococcus aureus

[5] = tested on: Sta. aureus M 126 (methicillin-resistant); assay: as above; type: cell-based; conditions: Staphylococcus aureus, 10^6 CFU/ml, 35° C., 18 to 20 hours
Experimental: as §1, with “hours. Test Compounds:” for “hours.”
as §2

| SMILES | MIC (E. coli NIHJ JC-2) [µg/mL] | MIC (P. vulgaris GN 76) [µg/mL] | MIC (Sta. aureus 209P JC-1) [µg/mL] | MIC (K. pneumoniae PCI 602) [µg/mL] | MIC (M. morganii 1510/S-l) [µg/mL] | MIC [1] [µg/mL] | Cmax [2] [µg/mL] | half-life [2] [h] | AUC [2] [µg·h/mL] | LD50 [3] [mg/kg] | MIC [4] [µg/mL] | MIC [5] [µg/mL] |
| --- | --- | --- | --- | --- | --- | --- | --- | --- | --- | --- | --- | --- |
| CO/N=C(\C(=O)NC1C(=O)N2C(C(=O)O)=C(Sc3nc4ccccc4s3)CS[C@H]12)c1nsc(N)n1 (some centres unmarked) [Compound A, 7-{(Z)-2-(5-amino-1,2,4-thiadiazol-3-yl)-2-methoxyiminoacetamido}-3-(benzothiazol-2-yl)thio-3-cephem-4-carboxylic acid] | 3.13 (≈ 5.69 µM) | 3.13 (≈ 5.69 µM) | 0.39 (≈ 0.71 µM) | 3.13 (≈ 5.69 µM) | 1.56 (≈ 2.84 µM) | 0.39 (≈ 0.71 µM) | 126 | 1.8 | 343 | 1000 to 1500 | 1.56 (≈ 2.84 µM) | 3.13 (≈ 5.69 µM) |
| CO/N=C(\C(=O)NC1C(=O)N2C(C(=O)O)=C(Sc3nc4cccnc4s3)CS[C@H]12)c1nsc(N)n1 (some centres unmarked) [Compound B, 7-{(Z)-2-(5-amino-1,2,4-thiadiazol-3-yl)-2-methoxyiminoacetamido}-3-(thiazolo[5,4-b]pyridin-2-yl)thio-3-cephem-4-carboxylic acid] | 3.13 (≈ 5.68 µM) | 12.5 (≈ 22.7 µM) | 0.78 (≈ 1.42 µM) | 3.13 (≈ 5.68 µM) | 50 (≈ 90.8 µM) | 0.39 (≈ 0.708 µM) | 110 | 1.3 | 230 | – | 3.13 (≈ 5.68 µM) | 12.5 (≈ 22.7 µM) |
| CO/N=C(\C(=O)NC1C(=O)N2C(C(=O)O)=C(Sc3nc4ccccc4o3)CSC12)c1csc(N)n1 (centres unmarked) [Compound C, 7-{(Z)-2-(2-aminothiazol-4-yl)-2-methoxy-iminoacetamido}-3-(benzoxazol-2-yl)thio-3-cephem-4-carboxylic acid] | – | – | – | – | – | – | 141 | 2.1 | 442 | – | – | – |
